Assay results: the supplement of paper PMC11451515

Tested on: P12-Ichikawa
Assay: cell viability relative to DMSO control; higher = less cytotoxic
Details: 48 h
Procedure, shortened: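 Library compounds in DMSO were pin-dosed in an 11-point threefold series (47 μM to 0.79 nM) onto leukemia cells in 1536-well plates (5 μl). Plates held 500 cells/well of NOMO1 or SEM or 1000 cells/well of P12-Ichikawa, each adapted for at least four passages in each medium. Luminescence was read with CellTiter-Glo One after 48 h at 37°C. Viability means the per-plate percentage relative to DMSO wells, using cell-free wells as background.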

[1] = HPLM + 10% dialyzed FBS, 0.000781 µM
[2] = HPLM + 10% dialyzed FBS, 0.00234 µM
[3] = HPLM + 10% dialyzed FBS, 0.00702 µM
[4] = HPLM + 10% dialyzed FBS, 0.0211 µM
[5] = HPLM + 10% dialyzed FBS, 0.0632 µM
[6] = HPLM + 10% dialyzed FBS, 0.19 µM
[7] = HPLM + 10% dialyzed FBS, 0.569 µM
[8] = HPLM + 10% dialyzed FBS, 1.71 µM
[9] = HPLM + 10% dialyzed FBS, 5.12 µM
[10] = HPLM + 10% dialyzed FBS, 15.4 µM
[11] = HPLM + 10% dialyzed FBS, 46.1 µM
[12] = RPMI 5 mM glucose + 10% FBS, 0.000781 µM
[13] = RPMI 5 mM glucose + 10% FBS, 0.00234 µM
[14] = RPMI 5 mM glucose + 10% FBS, 0.00702 µM
[15] = RPMI 5 mM glucose + 10% FBS, 0.0211 µM
[16] = RPMI 5 mM glucose + 10% FBS, 0.0632 µM
[17] = RPMI 5 mM glucose + 10% FBS, 0.19 µM
[18] = RPMI 5 mM glucose + 10% FBS, 0.569 µM
[19] = RPMI 5 mM glucose + 10% FBS, 1.71 µM
[20] = RPMI 5 mM glucose + 10% FBS, 5.12 µM
[21] = RPMI 5 mM glucose + 10% FBS, 15.4 µM
[22] = RPMI 5 mM glucose + 10% FBS, 46.1 µM
[23] = RPMI 5 mM glucose + 10% dialyzed FBS, 0.000781 µM
[24] = RPMI 5 mM glucose + 10% dialyzed FBS, 0.00234 µM
[25] = RPMI 5 mM glucose + 10% dialyzed FBS, 0.00702 µM
[26] = RPMI 5 mM glucose + 10% dialyzed FBS, 0.0211 µM
[27] = RPMI 5 mM glucose + 10% dialyzed FBS, 0.0632 µM
[28] = RPMI 5 mM glucose + 10% dialyzed FBS, 0.19 µM
[29] = RPMI 5 mM glucose + 10% dialyzed FBS, 0.569 µM
[30] = RPMI 5 mM glucose + 10% dialyzed FBS, 1.71 µM
[31] = RPMI 5 mM glucose + 10% dialyzed FBS, 5.12 µM
[32] = RPMI 5 mM glucose + 10% dialyzed FBS, 15.4 µM
[33] = RPMI 5 mM glucose + 10% dialyzed FBS, 46.1 µM

SMILES: CN1CCC(CC1)COC2=CN=C(N=C2)C3=CC(=CC=C3)CN4/N=C(\C=C/C4=O)C5=CC(=CC=C5)C#N
- cell viability [1]: 103%
- cell viability [2]: 112%
- cell viability [3]: 112%
- cell viability [4]: 114%
- cell viability [5]: 119%
- cell viability [6]: 112%
- cell viability [7]: 114%
- cell viability [8]: 123%
- cell viability [9]: 113%
- cell viability [10]: 112%
- cell viability [11]: 105%
- cell viability [12]: 107%
- cell viability [13]: 113%
- cell viability [14]: 111%
- cell viability [15]: 102%
- cell viability [16]: 122%
- cell viability [17]: 118%
- cell viability [18]: 118%
- cell viability [19]: 111%
- cell viability [20]: 123%
- cell viability [21]: 112%
- cell viability [22]: 113%
- cell viability [23]: 117%
- cell viability [24]: 112%
- cell viability [25]: 119%
- cell viability [26]: 112%
- cell viability [27]: 130%
- cell viability [28]: 123%
- cell viability [29]: 131%
- cell viability [30]: 120%
- cell viability [31]: 118%
- cell viability [32]: 121%
- cell viability [33]: 122%

SMILES: CC(C)Oc1cc(Nc2nc(N[C@@H](C)c3ccc(F)cn3)ncc2Cl)n[nH]1
- cell viability [1]: 111%
- cell viability [2]: 111%
- cell viability [3]: 116%
- cell viability [4]: 112%
- cell viability [5]: 110%
- cell viability [6]: 115%
- cell viability [7]: 106%
- cell viability [8]: 13.3%
- cell viability [9]: 14.7%
- cell viability [10]: 29.6%
- cell viability [11]: 41.1%
- cell viability [12]: 104%
- cell viability [13]: 92.9%
- cell viability [14]: 105%
- cell viability [15]: 106%
- cell viability [16]: 108%
- cell viability [17]: 110%
- cell viability [18]: 104%
- cell viability [19]: 15.2%
- cell viability [20]: 17%
- cell viability [21]: 27.5%
- cell viability [22]: 40%
- cell viability [23]: 113%
- cell viability [24]: 113%
- cell viability [25]: 108%
- cell viability [26]: 114%
- cell viability [27]: 115%
- cell viability [28]: 116%
- cell viability [29]: 105%
- cell viability [30]: 27.9%
- cell viability [31]: 30.5%
- cell viability [32]: 46.6%
- cell viability [33]: 55.5%

SMILES: O=C(NC[C@H]1CN(c2ccc(N3CCOCC3=O)cc2)C(=O)O1)c1ccc(Cl)s1
- cell viability [1]: 104%
- cell viability [2]: 111%
- cell viability [3]: 112%
- cell viability [4]: 115%
- cell viability [5]: 113%
- cell viability [6]: 119%
- cell viability [7]: 122%
- cell viability [8]: 114%
- cell viability [9]: 16%
- cell viability [10]: 13.4%
- cell viability [11]: 12.4%
- cell viability [23]: 103%
- cell viability [24]: 119%
- cell viability [25]: 115%
- cell viability [26]: 125%
- cell viability [27]: 126%
- cell viability [28]: 123%
- cell viability [29]: 134%
- cell viability [30]: 132%
- cell viability [31]: 51.1%
- cell viability [32]: 37.8%
- cell viability [33]: 19.3%

SMILES: CC(C)C[C@H](NC(=O)[C@@H](NC(=O)c1cccc(-c2ccccc2)n1)[C@@H](C)O)B(O)O
- cell viability [1]: 101%
- cell viability [2]: 114%
- cell viability [3]: 112%
- cell viability [4]: 112%
- cell viability [5]: 45.1%
- cell viability [6]: 7.04%
- cell viability [7]: 6.52%
- cell viability [8]: 6.5%
- cell viability [9]: 3.21%
- cell viability [10]: 1.52%
- cell viability [11]: 1.32%
- cell viability [12]: 103%
- cell viability [13]: 118%
- cell viability [14]: 123%
- cell viability [15]: 110%
- cell viability [16]: 17.8%
- cell viability [17]: 7.41%
- cell viability [18]: 6.75%
- cell viability [19]: 6.12%
- cell viability [20]: 4.81%
- cell viability [21]: 2.62%
- cell viability [22]: 1.65%
- cell viability [23]: 99.4%
- cell viability [24]: 109%
- cell viability [25]: 122%
- cell viability [26]: 124%
- cell viability [27]: 53.2%
- cell viability [28]: 7.76%
- cell viability [29]: 6.76%
- cell viability [30]: 6.66%
- cell viability [31]: 5.34%
- cell viability [32]: 2.52%
- cell viability [33]: 1.55%

SMILES: CCN(CC)C(=S)SSC(=S)N(CC)CC
- cell viability [1]: 104%
- cell viability [2]: 106%
- cell viability [3]: 118%
- cell viability [4]: 120%
- cell viability [5]: 117%
- cell viability [6]: 109%
- cell viability [7]: 119%
- cell viability [8]: 122%
- cell viability [9]: 4.64%
- cell viability [10]: 10.4%
- cell viability [11]: 9.15%
- cell viability [12]: 103%
- cell viability [13]: 98.6%
- cell viability [14]: 112%
- cell viability [15]: 122%
- cell viability [16]: 119%
- cell viability [17]: 115%
- cell viability [18]: 115%
- cell viability [19]: 116%
- cell viability [20]: 4.29%
- cell viability [21]: 5.91%
- cell viability [22]: 4.43%
- cell viability [23]: 104%
- cell viability [24]: 105%
- cell viability [25]: 116%
- cell viability [26]: 115%
- cell viability [27]: 115%
- cell viability [28]: 112%
- cell viability [29]: 108%
- cell viability [30]: 115%
- cell viability [31]: 4%
- cell viability [32]: 3.98%
- cell viability [33]: 3.13%

SMILES: CO[C@H]1C[C@@H]2CC[C@@H](C)[C@@](O)(O2)C(=O)C(=O)N2CCCC[C@H]2C(=O)O[C@H]([C@H](C)C[C@@H]2CC[C@@H](OC(=O)C(C)(CO)CO)[C@H](OC)C2)CC(=O)[C@H](C)/C=C(\C)[C@@H](O)[C@@H](OC)C(=O)[C@H](C)C[C@H](C)/C=C/C=C/C=C/1C
- cell viability [1]: 110%
- cell viability [2]: 117%
- cell viability [3]: 113%
- cell viability [4]: 106%
- cell viability [5]: 104%
- cell viability [6]: 107%
- cell viability [7]: 100%
- cell viability [8]: 96%
- cell viability [9]: 87.2%
- cell viability [10]: 83.4%
- cell viability [11]: 77.9%
- cell viability [12]: 92.8%
- cell viability [13]: 111%
- cell viability [14]: 97.6%
- cell viability [15]: 97.8%
- cell viability [16]: 94.1%
- cell viability [17]: 90%
- cell viability [18]: 87.6%
- cell viability [19]: 84.4%
- cell viability [20]: 65.8%
- cell viability [21]: 63.3%
- cell viability [22]: 50.1%
- cell viability [23]: 94.3%
- cell viability [24]: 110%
- cell viability [25]: 110%
- cell viability [26]: 92%
- cell viability [27]: 92.8%
- cell viability [28]: 96.7%
- cell viability [29]: 85%
- cell viability [30]: 89.8%
- cell viability [31]: 78.2%
- cell viability [32]: 66.5%
- cell viability [33]: 52.5%

SMILES: CC(C)(C)c1cc(C=C(C#N)C#N)cc(Br)c1O
- cell viability [1]: 96.9%
- cell viability [2]: 116%
- cell viability [3]: 74.7%
- cell viability [4]: 114%
- cell viability [5]: 122%
- cell viability [6]: 122%
- cell viability [7]: 123%
- cell viability [8]: 120%
- cell viability [9]: 121%
- cell viability [10]: 116%
- cell viability [11]: 104%
- cell viability [12]: 101%
- cell viability [13]: 110%
- cell viability [14]: 67.7%
- cell viability [15]: 117%
- cell viability [16]: 115%
- cell viability [17]: 123%
- cell viability [18]: 124%
- cell viability [19]: 113%
- cell viability [20]: 123%
- cell viability [21]: 121%
- cell viability [22]: 100%
- cell viability [23]: 106%
- cell viability [24]: 114%
- cell viability [25]: 79.7%
- cell viability [26]: 116%
- cell viability [27]: 126%
- cell viability [28]: 132%
- cell viability [29]: 117%
- cell viability [30]: 132%
- cell viability [31]: 130%
- cell viability [32]: 113%
- cell viability [33]: 110%

SMILES: CC(=O)N1CCN(c2ccc(OCc3nn(C)c(C)c3-c3cccc4c(CCCOc5cccc6ccccc56)c(C(=O)O)n(Cc5cccnc5)c34)cc2)CC1
- cell viability [1]: 108%
- cell viability [2]: 116%
- cell viability [3]: 123%
- cell viability [4]: 122%
- cell viability [5]: 120%
- cell viability [6]: 119%
- cell viability [7]: 124%
- cell viability [8]: 122%
- cell viability [9]: 108%
- cell viability [10]: 31.8%
- cell viability [11]: 9.79%
- cell viability [12]: 98.4%
- cell viability [13]: 118%
- cell viability [14]: 123%
- cell viability [15]: 123%
- cell viability [16]: 124%
- cell viability [17]: 125%
- cell viability [18]: 137%
- cell viability [19]: 135%
- cell viability [20]: 123%
- cell viability [21]: 28.2%
- cell viability [22]: 11%
- cell viability [23]: 107%
- cell viability [24]: 124%
- cell viability [25]: 121%
- cell viability [26]: 128%
- cell viability [27]: 128%
- cell viability [28]: 123%
- cell viability [29]: 136%
- cell viability [30]: 129%
- cell viability [31]: 134%
- cell viability [32]: 91.1%
- cell viability [33]: 25.5%
